Measured values: BindingDB's records for patent WO2022104348 (Janssen Pharmaceutica, 2022)

Each molecule was assayed against Mitogen-activated protein kinase kinase kinase 14 (Homo sapiens, UniProt Q99558) (assay: Inhibition of auto-phosphorylation of recombinant human NF-kappaB-inducing kinase (NIK/MAP3K14) activity).
Chain of Mitogen-activated protein kinase kinase kinase 14 (Q99558 whole entry): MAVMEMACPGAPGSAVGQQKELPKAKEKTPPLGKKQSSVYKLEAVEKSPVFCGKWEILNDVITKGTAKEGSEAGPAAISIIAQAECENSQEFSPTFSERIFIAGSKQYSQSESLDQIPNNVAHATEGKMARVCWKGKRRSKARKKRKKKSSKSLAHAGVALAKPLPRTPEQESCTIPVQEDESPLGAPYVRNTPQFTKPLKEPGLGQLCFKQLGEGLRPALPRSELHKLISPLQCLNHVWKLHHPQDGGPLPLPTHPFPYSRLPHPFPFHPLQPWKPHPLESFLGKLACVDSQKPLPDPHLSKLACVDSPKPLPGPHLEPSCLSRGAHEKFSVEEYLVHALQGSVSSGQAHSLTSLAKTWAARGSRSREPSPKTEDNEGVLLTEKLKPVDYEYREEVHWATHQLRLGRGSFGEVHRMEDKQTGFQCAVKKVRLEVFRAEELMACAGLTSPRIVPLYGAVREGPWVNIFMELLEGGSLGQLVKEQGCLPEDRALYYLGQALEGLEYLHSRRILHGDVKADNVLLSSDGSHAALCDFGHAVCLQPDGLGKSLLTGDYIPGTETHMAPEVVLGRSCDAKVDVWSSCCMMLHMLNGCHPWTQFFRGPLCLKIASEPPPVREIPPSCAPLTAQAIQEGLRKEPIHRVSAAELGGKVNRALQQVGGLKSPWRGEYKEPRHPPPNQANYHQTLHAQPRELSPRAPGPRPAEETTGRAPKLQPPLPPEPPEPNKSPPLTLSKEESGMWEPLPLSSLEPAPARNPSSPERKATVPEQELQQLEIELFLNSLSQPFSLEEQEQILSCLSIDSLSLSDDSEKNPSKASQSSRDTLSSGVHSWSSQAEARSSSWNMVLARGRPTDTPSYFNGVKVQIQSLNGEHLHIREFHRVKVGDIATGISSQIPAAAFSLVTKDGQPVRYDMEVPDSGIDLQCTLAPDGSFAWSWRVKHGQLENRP
Procedure: NIK/MAP3K14 auto-phosphorylation activity was measured using the AlphaScreen (ascreen) format (Perkin Elmer). All compound6 tested were dissolved in dimethyl sulfoxide (DMSO) and further dilutions were made in assay buffer. The final DMSO concentration was 0.7% (v/v) in assays. The assay buffer was 50 mM Tris pH 7.5 containing 1 mM EGTA (ethylene glycol tetraacetic acid), 1 mM DTT (dithiothreitol), 0.1 mM NasVCO4, 5 mM MgCE, and 0.01 % Tween 20. The assays were carried out in 384 well Proxiplates (Perkin Elmer). The incubations consisted of the compound, […] Adenosine-5'-triphosphate (ATP), and 1 nM NIK/MAP3K14. Incubations were initiated by the addition of GST-tagged NIK/MAP3K14 enzyme, carried out for 2 h at 25 °C and terminated by addition of stop buffer containing anti-phospho-IKK Ser176/180 antibody. Protein A Acceptor and Glutathione-Donor bead6 were added before reading using an EnVision Multilabel Plate Reader (Perkin Elmer). The signal obtained in the wells was normalized using high (full enzyme activity, 0.7% DMSO) and low controls (no enzyme activity, 0.7% DMSO, no ATP). IC50 s were determined by fitting a sigmoidal curve to % inhibition of control versus Log compound concentration.
`C[C@@]1(O)C[C@@](O)(c2cccc(-c3csc(-c4c[nH]c5ncccc45)n3)c2)c2ncccc21` [WO2022104348, Example 106] was tested, and the IC50 was > 500 nM.
For `Cc1sc(-c2c[nH]c3nccnc23)nc1-c1cccc([C@]2(O)CCN(C)C2=O)c1` [WO2022104348, Example 66], the IC50 was < 100 nM.
In the case of `O=C1N(CC(F)(F)F)CC[C@]1(O)c1cccc(-c2csc(-c3c[nH]c4nccnc34)n2)c1` [WO2022104348, Example 43], the IC50 is reported as > 500 nM.
For `Cc1ccc([C@]2(O)CCN(C)C2=O)cc1-c1csc(-c2c[nH]c3nccnc23)n1` [WO2022104348, Example 67], the IC50 was < 100 nM.
`O[C@@]1(c2cccc(-c3csc(-c4c[nH]c5ncc(Cl)cc45)n3)c2)Cc2nccn2C1` [WO2022104348, Example 27] was tested, and the IC50 was < 100 nM.
In the case of `CN1CC[C@@](O)(c2cccc(-c3nc(-c4c(Cl)cnc5[nH]ccc45)cs3)c2)C1=O` [WO2022104348, Example 130], the IC50 is reported as > 500 nM.
For `Cc1c(-c2c[nH]c3ncccc23)n[nH]c1-c1cccc([C@]2(O)CCN(C)C2=O)c1` [WO2022104348, Example 119], the IC50 was > 500 nM.
`CN1CC[C@@](O)(c2cccc(-c3coc(-c4c[nH]c5ncccc45)n3)c2)C1=O` [WO2022104348, Example 116] was tested, and the IC50 was < 100 nM.
In the case of `C[C@@]1(O)C[C@](O)(c2cccc(-c3csc(-c4c[nH]c5ncccc45)n3)c2)c2ncccc21` [WO2022104348, Example 107], the IC50 is reported as > 500 nM.
For `CN1CC[C@@](O)(c2cccc(-n3ncc(-c4c[nH]c5ncccc45)n3)c2)C1=O` [WO2022104348, Example 109], the IC50 was < 100 nM.
For `O[C@@]1(c2cccc(-c3csc(-c4c[nH]c5nnccc45)n3)c2)CCn2ccnc21` [WO2022104348, Example 88], the IC50 was < 100 nM.
In the case of `O[C@@]1(c2cccc(-c3csc(-c4c[nH]c5ncc(F)c(F)c45)n3)c2)CCn2ccnc21` [WO2022104348, Example 96], the IC50 is reported as < 100 nM.
`O[C@@]1(c2cccc(-c3csc(-c4c[nH]c5nccnc45)n3)c2)COc2cccnc21` [WO2022104348, Example 86] was tested, and the IC50 was > 500 nM.
With `Cc1cnc2c(-c3nc(-c4cccc([C@]5(O)CCn6ccnc65)c4)cs3)c[nH]c2n1` [WO2022104348, Example 83] the IC50 was < 100 nM.
With `Cc1cnc2[nH]cc(-c3nc(-c4cccc([C@]5(O)CCN(C)C5=O)c4)cs3)c2c1` [WO2022104348, Example 7] the IC50 was < 100 nM.
For `O[C@@]1(c2cccc(-c3csc(-c4n[nH]c5cccnc45)n3)c2)CCn2ccnc21` [WO2022104348, Example 75], the IC50 was ≤ 500 nM.
`CN1CC[C@@](O)(c2cccc(-c3csc(-c4c[nH]c5ncc(Cl)c(F)c45)n3)c2)C1=O` [WO2022104348, Example 95] was tested, and the IC50 was < 100 nM.
For `CN1CC[C@@](O)(c2cccc(-c3csc(-c4n[nH]c5ncccc45)n3)c2)C1=O` [WO2022104348, Example 100], the IC50 was > 500 nM.
In the case of `O=C1N(CC(F)(F)F)CC[C@@]1(O)c1cccc(-c2csc(-c3c[nH]c4nccnc34)n2)c1` [WO2022104348, Example 44], the IC50 is reported as > 500 nM.
`C[C@]1(O)C[C@](O)(c2cccc(-c3csc(-c4c[nH]c5ncccc45)n3)c2)c2ncccc21` [WO2022104348, Example 105] was tested, and the IC50 was > 500 nM.
`Cc1cc(-c2csc(-c3c[nH]c4nccnc34)n2)cc([C@]2(O)CCN(C)C2=O)c1` [WO2022104348, Example 68] was tested, and the IC50 was < 100 nM.
With `O[C@]1(c2cccc(-c3csc(-c4c[nH]c5ncccc45)n3)c2)C=Cc2cccnc21` [WO2022104348, Example 34] the IC50 was > 500 nM.
In the case of `COc1cnc2[nH]cc(-c3nc(-c4cccc([C@]5(O)CCN(C)C5=O)c4)cs3)c2c1` [WO2022104348, Example 49], the IC50 is reported as < 100 nM.
With `O[C@@]1(c2cccc(-c3csc(-c4c[nH]c5ncc(Cl)c(F)c45)n3)c2)CCn2ccnc21` [WO2022104348, Example 97] the IC50 was < 100 nM.
In the case of `CN1CC[C@](O)(c2cccc(-c3csc(-c4c[nH]c5ncccc45)n3)c2)C1=O` [WO2022104348, Example 39], the IC50 is reported as > 500 nM.
`CN1CC[C@@](O)(c2cccc(-n3cnc(-c4c[nH]c5ncccc45)c3)c2)C1=O` [WO2022104348, Example 124] was tested, and the IC50 was > 500 nM.
With `O=C1Nc2cccnc2[C@@]1(O)c1cccc(-c2csc(-c3c[nH]c4ncccc34)n2)c1` [WO2022104348, Example 90] the IC50 was > 500 nM.
In the case of `C[C@@](O)(c1cccc(-c2csc(-c3c[nH]c4nccnc34)n2)c1)c1ncc[nH]1` [WO2022104348, Example 77], the IC50 is reported as > 500 nM.
In the case of `CN1C[C@](O)(c2cccc(-c3csc(-c4c[nH]c5nccnc45)n3)c2)C1=O` [WO2022104348, Example 46], the IC50 is reported as > 500 nM.
For `CN1CC[C@@](O)(c2cccc(-c3nc(-c4c[nH]c5ncccc45)sc3CO)c2)C1=O` [WO2022104348, Example 50], the IC50 was < 100 nM.
In the case of `CC1(C)Cc2cccnc2[C@]1(O)c1cccc(-c2csc(-c3c[nH]c4ncccc34)n2)c1` [WO2022104348, Example 36], the IC50 is reported as < 100 nM.
`CN1CC[C@@](O)(c2cccc(-c3coc(-c4c[nH]c5ncccc45)c3)c2)C1=O` [WO2022104348, Example 93] was tested, and the IC50 was < 100 nM.
For `O[C@H]1C[C@@](O)(c2cccc(-c3csc(-c4c[nH]c5ncccc45)n3)c2)c2ncccc21` [WO2022104348, Example 103], the IC50 was > 500 nM.
`CN1CC[C@@](O)(c2cccc(-c3ccc(-c4c[nH]c5ncccc45)o3)c2)C1=O` [WO2022104348, Example 114] was tested, and the IC50 was < 100 nM.
For `Cc1ccc(-c2csc(-c3c[nH]c4nccnc34)n2)cc1[C@@]1(O)CCN(C)C1=O` [WO2022104348, Example 70], the IC50 was > 500 nM.
With `CN1CC[C@@](O)(c2cccc(-c3nc(-c4cc(N)nc5[nH]ccc45)cs3)c2)C1=O` [WO2022104348, Example 129] the IC50 was > 500 nM.
In the case of `CN1CC[C@@](O)(c2cccc(-n3ccc(-c4c[nH]c5ncccc45)n3)c2)C1=O` [WO2022104348, Example 122], the IC50 is reported as < 100 nM.
With `CN1CC[C@@](O)(c2cccc(-c3nc(-c4c[nH]c5ncccc45)sc3F)c2)C1=O` [WO2022104348, Example 99] the IC50 was < 100 nM.
With `O[C@@]1(c2cccc(-c3csc(-c4c[nH]c5ncccc45)n3)c2)CCc2cccnc21` [WO2022104348, Example 2] the IC50 was < 100 nM.
In the case of `O[C@H]1C[C@](O)(c2cccc(-c3csc(-c4c[nH]c5ncccc45)n3)c2)c2ncccc21` [WO2022104348, Example 102], the IC50 is reported as > 500 nM.
`CN1CC[C@@](O)(c2cccc(-n3cnc(-c4c[nH]c5ncccc45)n3)c2)C1=O` [WO2022104348, Example 121] was tested, and the IC50 was < 100 nM.
With `O=C1Nc2cccnc2[C@]1(O)c1cccc(-c2csc(-c3c[nH]c4ncccc34)n2)c1` [WO2022104348, Example 89] the IC50 was > 500 nM.
For `Cn1ccnc1[C@@](C)(O)c1cccc(-c2csc(-c3c[nH]c4ncccc34)n2)c1` [WO2022104348, Example 79], the IC50 was > 500 nM.
With `CN1CC[C@@](O)(c2cccc(-c3csc(-c4c[nH]c5ncncc45)n3)c2)C1=O` [WO2022104348, Example 53] the IC50 was < 100 nM.
`CN1CC[C@@](O)(c2cccc(-c3csc(-n4ccc5nc(N)ccc54)n3)c2)C1=O` [WO2022104348, Example 112] was tested, and the IC50 was > 500 nM.
For `CN1CC[C@@](O)(c2cccc(-n3cc(-c4c[nH]c5ncccc45)nn3)c2)C1=O` [WO2022104348, Example 123], the IC50 was > 500 nM.
With `O[C@]1(c2cccc(-c3csc(-c4c[nH]c5ncccc45)n3)c2)CCCn2ccnc21` [WO2022104348, Example 37] the IC50 was > 500 nM.
For `O[C@@]1(c2cccc(-c3csc(-c4c[nH]c5ncncc45)n3)c2)CCc2cccnc21` [WO2022104348, Example 5], the IC50 was < 100 nM.
`CN1CC[C@@](O)(c2cccc(-c3csc(-c4c[nH]c5ncccc45)n3)c2)C1=O` [WO2022104348, Example 40] was tested, and the IC50 was < 100 nM.
With `O[C@@]1(c2cccc(-c3csc(-c4c[nH]c5ncccc45)n3)c2)CCc2scnc21` [WO2022104348, Example 32] the IC50 was < 100 nM.
With `CN1C(=O)[C@](O)(c2cccc(-c3csc(-c4c[nH]c5ncccc45)n3)c2)c2ncccc21` [WO2022104348, Example 92] the IC50 was < 100 nM.
In the case of `C[C@@](O)(c1cccc(-c2csc(-c3c[nH]c4ncccc34)n2)c1)c1ncc[nH]1` [WO2022104348, Example 80], the IC50 is reported as > 500 nM.
For `CN1CC[C@](O)(c2cccc(-c3cnc(-c4c[nH]c5ncccc45)s3)c2)C1=O` [WO2022104348, Example 4], the IC50 was > 500 nM.
For `O[C@@]1(c2cccc(-c3csc(-c4c[nH]c5ncc(C(F)(F)F)cc45)n3)c2)Cc2nccn2C1` [WO2022104348, Example 25], the IC50 was < 100 nM.
For `CN1C[C@@](O)(c2cccc(-c3csc(-c4c[nH]c5nccnc45)n3)c2)C1=O` [WO2022104348, Example 45], the IC50 was > 500 nM.
For `Cc1cnc2[nH]cc(-c3nc(-c4cccc([C@@]5(O)CCn6ccnc65)c4)cs3)c2n1` [WO2022104348, Example 81], the IC50 was < 100 nM.
For `O[C@]1(c2cccc(-c3csc(-c4c[nH]c5nccnc45)n3)c2)OCc2cccnc21` [WO2022104348, Example 17], the IC50 was < 100 nM.
For `Cc1noc2c1CC[C@@]2(O)c1cccc(-c2csc(-c3c[nH]c4ncccc34)n2)c1` [WO2022104348, Example 126], the IC50 was < 100 nM.
For `O[C@@]1(c2cccc(-c3csc(-c4c[nH]c5ncccc45)n3)c2)CCCn2ccnc21` [WO2022104348, Example 38], the IC50 was < 100 nM.
With `CN1CC[C@@](O)(c2cccc(-c3csc(-c4c[nH]c5ncc(F)c(F)c45)n3)c2)C1=O` [WO2022104348, Example 94] the IC50 was < 100 nM.
In the case of `O[C@]1(c2cccc(-c3csc(-c4c[nH]c5ncccc45)n3)c2)CCc2cccnc21` [WO2022104348, Example 1], the IC50 is reported as > 500 nM.
